In brackets after ≈: the same amount, converted by molar mass. Like-named read-outs stand apart in the source and are kept apart here. Where a SMILES comes first, the peptide text is derived from it. Where no end group is shown, it is not given here.
Legend:
[1] = system: MDR E. coli (CPO-NDM) clinical isolate; format: cell-based, Escherichia coli
Source text: (§1) From the novel candidate AMP sequences predicted by AMPlify, 11 were selected for validation in vitro. Minimum inhibitory concentrations (MIC) and minimum bactericidal concentrations (MBC) were obtained using the AST procedures outlined by the Clinical and Laboratory Standards Institute (CLSI), with the recommended adaptations for testing cationic AMPs described by Hancock.
(§2) A panel of two Gram-positive and four Gram-negative bacterial isolates was generated to test predicted AMPs. Staphylococcus aureus ATCC 6538P, Streptococcus pyogenes (hospital isolate, unknown strain), Pseudomonas aeruginosa ATCC 10148, and Escherichia coli ATCC 9723H were obtained and tested at the University of Victoria. Additionally, a multi-drug resistant (MDR), carbapenemase-producing New-Delhi metallobetalactamase (CPO-NDM) clinical isolate of Escherichia coli was obtained from the BC Centre for Disease Control. E. coli ATCC 29522 was purchased from Cedarlane Laboratories (Burlington, Ontario, Canada) for comparison of AMP activity between a wild type, drug-susceptible control and the MDR strain. The latter two strains were tested at the BC Centre for Disease Control using identical AST procedures.
(§3) Bacteria were streaked onto nonselective nutrient agar from frozen stocks and incubated for 18–24 h at 37 °C. To prepare a standardized bacterial inoculum, isolated colonies were suspended in Mueller-Hinton Broth (MHB) and adjusted to an optical density of 0.08–0.1 at 600 nm, equivalent to a 0.5 McFarland standard and representing approximately 1–2 × 10^8 CFU/mL (CFU: colony forming units). The inoculum was diluted 1/250 in MHB to the target concentration of (5 ± 3) × 10^5 CFU/mL. Total viability counts from the final inoculum were examined to confirm the target bacterial density was obtained.
(§4) Selected candidate AMPs were purchased from Genscript (Piscataway, NJ), where they were synthesized using the vendor’s Flexpeptide platform. Lyophilized peptides were suspended in sterile ultrapure water or filter-sterilized 0.2% acetic acid as recommended by solubility testing reports provided with the GenScript synthesis. AMPs were diluted from 2560 to 5 μg/mL by a two-fold serial dilution in a 96-well polypropylene microtitre plate before 100 μl of the standardized bacterial inoculum of (5 ± 3) × 10^5 CFU/mL was added to each well. This generated a final test range of 256 to 0.5 μg/mL. MIC values were reported as the peptide concentration that produced no visible bacterial growth after a 16–24 h incubation at 37 °C.
(§5) For each AMP dilution series, the contents of the MIC well and the two adjacent wells containing two- and four-fold MIC were plated onto nonselective nutrient agar and incubated for 24 h at 37 °C. The concentration which killed 99.9% of the initial inoculum was determined to be the MBC.

[2] = system: all E. coli strains tested; format: cell-based, Escherichia coli
Source text: as §1, §2, §3, §4, §5

[3] = system: E. coli ATCC 25922; format: cell-based, Escherichia coli
Source text: as §1
as §2, with “E. coli ATCC 29522 was purchased from Cedarlane Laboratories (Burlington, Ontario, Canada) for comparison of AMP activity between a wild type, drug-susceptible control and the MDR strain.” left out
as §3, §4, §5

[4] = system: Escherichia coli ATCC 9723H; format: cell-based
Source text: as §1, §2, §3, §4, §5

[5] = system: Staphylococcus aureus ATCC 6538P; format: cell-based
Source text: as §1, §2, §3, §4, §5

[6] = system: at least one of the ten bacterial species tested: Bacillus subtilis, Micrococcus luteus, Staphyloccus aureus, Staphylococcus epidermis, Escherichia coli …; design: method as in Won and co-workers [2]; key: ✓: Whether the peptide shows antimicrobial activity against at least one of the ten bacterial species tested in the work; conditions: activity against at least one of ten bacterial species; blank cell = not active; ref Won and co-workers [2]; cited from earlier work
[7] = system: Streptococcus pyogenes (unknown strain; hospital isolate); format: cell-based
Source text: as §1, §2, §3, §4, §5

[8] = range over all E. coli strains tested (ATCC 9723H, ATCC 25922, MDR CPO-NDM)

Row | Compound | MBC [1] [µg/mL] | MBC ([1]; 24 h) [µM] | MBC ([2]; all strains tested) [µM] | MIC ([2]; all strains tested) [µM] | MBC ([3]; ATCC 25922) [µg/mL] | MBC ([3]; ATCC 25922, 24 h) [µM] | MBC ([4]; ATCC 9723) [µg/mL] | MBC ([4]; ATCC 9723, 24 h) [µM] | MIC ([5]; ATCC 6538) [µM] | MIC [1] [µg/mL] | Active? [6] | MBC [2, 8] [µM] | MIC [2, 8] [µM] | MBC ([3]; E. coli ATCC 25922, as Table 3, in µg/mL, range over three independent experiments, NI = no inhibition observed) [µg/mL] | MBC ([3]; E. coli ATCC 25922, plated on agar 24 h at 37 °C, kills 99.9% of inoculum, range over three independent experiments, NI = no inhibition observed) [µM] | MBC ([5]; ATCC 6538) [µg/mL] | MBC ([5]; ATCC 6538, 24 h) [µM] | MBC [7] [µg/mL] | MBC ([7]; 24 h) [µM] | MIC [7] [µg/mL]
1 | FFPRVLPLANKFLPTIYCALPKSVGN [RaCa-7] | 16 to 128 | 6 to 44 | 6 to 88 | 6 to 44 | 16 to 128 | 6 to 44 | 32 to 256 | 11 to 88 | ≥ 88 | – | – | – | – | – | – | – | – | – | – | –
2 | CC[C@H](C)[C@H](NC(=O)[C@H](CO)NC(=O)[C@H](CCCCN)NC(=O)CNC(=O)[C@@H](NC(=O)[C@@H](NC(=O)[C@H](CCCCN)NC(=O)[C@@H](NC(=O)[C@@H](NC(=O)[C@H](CCC(=O)O)NC(=O)[C@H](Cc1c[nH]c2ccccc12)NC(=O)[C@H](CC(C)C)NC(=O)CN)[C@@H](C)O)[C@@H](C)CC)[C@@H](C)O)[C@@H](C)O)C(=O)N[C@@H](C)C(=O)N[C@@H](CC(C)C)C(=O)N[C@@H](CC(N)=O)C(=O)N[C@@H](CC(C)C)C(=O)N[C@@H](CC(C)C)C(=O)N[C@@H](CC(=O)O)C(=O)N[C@@H](CCCCN)C(=O)N[C@H](C(=O)N[C@@H](CCCCN)C(=O)N[C@@H](CS)C(=O)N[C@@H](CCCCN)C(=O)N[C@H](C(=O)N[C@@H](C)C(=O)NCC(=O)NCC(=O)N[C@@H](CS)C(=O)N1CCC[C@H]1C(=O)N1CCC[C@H]1C(=O)O)[C@@H](C)CC)[C@@H](C)CC [RaCa-3] (H-GLWETIKTTGKSIALNLLDKIKCKIAGGCPP-OH; N-terminus and C-terminus assumed) | 16 to 64 | 5 to 20 | 2 to 20 | 2 to 10 | 8 to 16 | 2 to 5 | 16 to 32 | 5 to 10 | – | 16 to 32 | – | – | – | – | – | – | – | – | – | –
3 | Gaegurin 5 [GGN5] | – | – | – | – | – | – | – | – | – | – | ✓ | – | – | – | – | – | – | – | – | –
4 | CC[C@H](C)[C@H](NC(=O)[C@H](CCCCN)NC(=O)[C@H](CCC(=O)O)NC(=O)[C@H](CCCCN)NC(=O)[C@H](CO)NC(=O)[C@H](CCCCN)NC(=O)[C@H](CCCNC(=N)N)NC(=O)[C@H](Cc1ccccc1)NC(=O)[C@H](Cc1ccccc1)NC(=O)[C@H](CC(=O)O)NC(=O)CNC(=O)[C@H](CC(C)C)NC(=O)[C@@H](N)CC(C)C)C(=O)NCC(=O)N[C@@H](CCCCN)C(=O)N[C@@H](CCC(=O)O)C(=O)N[C@@H](Cc1ccccc1)C(=O)N[C@@H](CCCCN)C(=O)N[C@@H](CCCNC(=N)N)C(=O)N[C@H](C(=O)N[C@H](C(=O)N[C@@H](CCC(N)=O)C(=O)N[C@@H](CCCNC(=N)N)C(=O)N[C@H](C(=O)N[C@@H](CCCCN)C(=O)N[C@@H](CC(=O)O)C(=O)N[C@@H](Cc1ccccc1)C(=O)N[C@@H](CC(C)C)C(=O)N[C@@H](CCCNC(=N)N)C(=O)N[C@@H](CC(N)=O)C(=O)N[C@@H](CC(C)C)C(=O)N[C@H](C(=O)N1CCC[C@H]1C(=O)N[C@@H](CCCNC(=N)N)C(=O)N[C@H](C(=O)N[C@@H](CCC(=O)O)C(=O)N[C@@H](CO)C(=O)O)[C@@H](C)O)C(C)C)[C@@H](C)CC)C(C)C)[C@@H](C)CC [LL37, reference compound] | – | – | – | – | – | – | – | – | – | – | – | 2 to 7 | 2 to 4 | 8 to 16 | 2 to 4 | – | – | – | – | –
5 | CC[C@H](C)[C@H](NC(=O)[C@@H](NC(=O)[C@@H]1CCCN1C(=O)[C@H](Cc1ccccc1)NC(=O)[C@@H](N)Cc1ccccc1)[C@@H](C)CC)C(=O)N[C@@H](C)C(=O)N[C@@H](CCCNC(=N)N)C(=O)N[C@@H](CC(C)C)C(=O)N[C@@H](C)C(=O)N[C@@H](C)C(=O)N[C@@H](CCCCN)C(=O)N[C@H](C(=O)N[C@H](C(=O)N1CCC[C@H]1C(=O)N[C@@H](CO)C(=O)N[C@@H](CC(C)C)C(=O)N[C@H](C(=O)N[C@@H](CS)C(=O)N[C@@H](C)C(=O)N[C@H](C(=O)N[C@H](C(=O)N[C@@H](CCCCN)C(=O)N[C@@H](CCCCN)C(=O)N[C@@H](CS)C(=O)O)[C@@H](C)O)C(C)C)C(C)C)[C@@H](C)CC)C(C)C [RaCa-2] (H-FFPIIARLAAKVIPSLVCAVTKKC-OH; N-terminus and C-terminus assumed) | 4 to 16 | 2 to 6 | – | 2 to 6 | 4 to 16 | 2 to 6 | 8 to 16 | 3 to 6 | – | 4 to 16 | – | – | – | – | – | 2 to 4 | 1 to 2 | 64 to 128 | 25 to 49 | –
6 | CC[C@H](C)[C@H](NC(=O)[C@H](CCCCN)NC(=O)[C@@H](NC(=O)[C@H](C)NC(=O)[C@H](Cc1ccccc1)NC(=O)[C@H](CC(=O)O)NC(=O)[C@H](CCCCN)NC(=O)CNC(=O)[C@@H](NC(=O)[C@@H](NC(=O)[C@H](CCCCN)NC(=O)[C@@H](NC(=O)[C@@H](NC(=O)[C@H](CC(=O)O)NC(=O)[C@H](CC(C)C)NC(=O)[C@H](CC(C)C)NC(=O)CN)[C@@H](C)CC)[C@@H](C)CC)[C@@H](C)O)[C@@H](C)O)C(C)C)C(=O)N[C@@H](CC(C)C)C(=O)N[C@@H](CC(=O)O)C(=O)N[C@@H](CC(N)=O)C(=O)N[C@@H](CC(C)C)C(=O)N[C@@H](CCCCN)C(=O)N[C@@H](CS)C(=O)N[C@@H](CCCCN)C(=O)N[C@@H](CC(C)C)C(=O)N[C@@H](C)C(=O)NCC(=O)NCC(=O)N[C@@H](CS)C(=O)N1CCC[C@H]1C(=O)N1CCC[C@H]1C(=O)O [RaCa-1] (H-GLLDIIKTTGKDFAVKILDNLKCKLAGGCPP-OH; N-terminus and C-terminus assumed) | 64 to 128 | 20 to 39 | 10 to 79 | 10 to 39 | 32 to 128 | 10 to 39 | 128 to 256 | 39 to 79 | – | – | – | – | – | – | – | – | – | ≥ 256 | ≥ 79 | 256 (≈ 78.9 µM)

Reference: paper PMC8788131, “AMPlify: attentive deep learning model for discovery of novel antimicrobial peptides effective against WHO priority pathogens” (BMC Genomics, 2022)
